# PubChem BioAssay (NCI)
#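 Assay format: 96-well plates, 48-hour exposure. GI50 marks 50% less growth. TGI denotes the concentration required for complete inhibition of growth.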
# Key:
# Experiment in all cases: NCI anticancer screen, dose series, 48 h
# [1] = system: ACHN renal
# [2] = system: NCI-H522 lung
# [3] = system: TK-10 renal
# [4] = system: SR leukemia
# [5] = system: SF-268 CNS
# [6] = system: NCI-H23 lung
# [7] = system: IGROV1 ovarian
# [8] = system: HL-60(TB) leukemia
# [9] = system: OVCAR-5 ovarian
# [10] = system: OVCAR-3 ovarian
# [11] = system: KM12 colon
# [12] = system: RXF 393 renal
# [13] = system: OVCAR-8 ovarian
# [14] = system: SF-295 CNS
# [15] = system: HOP-92 NSCLC
# [16] = system: SK-OV-3 ovarian
# [17] = system: UACC-257 melanoma
# [18] = system: HCT-116 colon
# [19] = system: UACC-62 melanoma
# [20] = system: SW-620 colon
# [21] = system: EKVX NSCLC
# [22] = system: OVCAR-4 ovarian
# [23] = system: HCC-2998 colon
# [24] = system: CAKI-1 renal
# [25] = system: M14 melanoma
# [26] = system: NCI-H226 lung
# [27] = system: UO-31 renal
# [28] = system: SF-539 CNS
# [29] = system: SNB-75 CNS
# [30] = system: SNB-19 CNS
# [31] = system: NCI-H460 lung
# [32] = system: SK-MEL-2 melanoma
# [33] = system: KM20L2 colon
# [34] = system: LOX IMVI melanoma
# [35] = system: HT29 colon
# [36] = system: A549 NSCLC
# [37] = system: COLO 205 colon
# [38] = system: HOP-62 NSCLC
# [39] = system: HCT-15 colon
# [40] = system: A498 renal
# [41] = system: K-562 leukemia
# [42] = system: SNB-78 CNS
# [43] = system: SK-MEL-28 melanoma
# [44] = system: MOLT-4 leukemia
# [45] = system: LXFL 529 NSCLC
# [46] = system: M19-MEL melanoma
# [47] = system: CCRF-CEM leukemia
# [48] = system: RPMI-8226 leukemia
# [49] = system: DMS 114 small cell lung
compound,measurement,setting,value
O=C(N/N=C/c1cc(Cl)cc(Cl)c1[O-])c1ccccc1O.O=C(N/N=C/c1cc(Cl)cc(Cl)c1[O-])c1ccccc1O.[Cl-].[Fe+3],TGI,[1],38.5 µM
same,TGI,[2],31.5 µM
same,TGI,[3],> 100 µM
same,TGI,[4],25.3 µM
same,TGI,[5],69.8 µM
same,GI50,[6],7.73 µM
same,TGI,[6],25.7 µM
same,TGI,[7],48.4 µM
same,TGI,[8],5.22 µM
same,TGI,[9],26 µM
same,TGI,[10],27 µM
same,GI50,[11],12.6 µM
same,TGI,[11],37.9 µM
same,TGI,[12],23.7 µM
same,TGI,[13],25.9 µM
same,TGI,[14],22.4 µM
same,GI50,[15],1.95 µM
same,TGI,[15],7.18 µM
same,TGI,[16],29.2 µM
same,TGI,[17],51.2 µM
same,GI50,[18],5.78 µM
same,TGI,[18],18.9 µM
same,TGI,[19],33.6 µM
same,TGI,[20],29.9 µM
same,GI50,[21],29.3 µM
same,TGI,[21],88.3 µM
same,TGI,[22],26.6 µM
same,TGI,[23],23.5 µM
same,TGI,[24],> 100 µM
same,TGI,[25],35.3 µM
same,TGI,[26],20.5 µM
same,TGI,[27],31.7 µM
same,GI50,[28],10.5 µM
same,TGI,[28],27.9 µM
same,TGI,[29],60.4 µM
same,TGI,[30],22.7 µM
same,TGI,[31],36 µM
same,GI50,[32],17.1 µM
same,TGI,[32],37.1 µM
same,GI50,[33],10.7 µM
same,TGI,[33],24 µM
same,TGI,[34],30.9 µM
same,TGI,[35],34.8 µM
same,GI50,[36],10.2 µM
same,TGI,[36],63.8 µM
same,GI50,[37],19.4 µM
same,TGI,[37],44.4 µM
same,TGI,[38],36.2 µM
same,TGI,[39],18.7 µM
COc1cc2ccc1NC(=O)N1CCN(CC1)C(=O)Nc1ccc(cc1OC)-c1ccc(c(OC)c1)NC(=O)N1CCN(CC1)C(=O)Nc1ccc-2cc1OC,TGI,[40],> 100 µM
same,TGI,[41],> 100 µM
same,TGI,[1],> 100 µM
same,TGI,[2],> 100 µM
same,TGI,[4],> 100 µM
same,TGI,[42],> 100 µM
same,TGI,[5],> 100 µM
same,TGI,[6],> 100 µM
same,TGI,[7],> 100 µM
same,TGI,[10],> 100 µM
same,TGI,[11],> 100 µM
same,TGI,[12],> 100 µM
same,TGI,[14],> 100 µM
same,TGI,[15],> 100 µM
same,TGI,[43],> 100 µM
same,TGI,[16],> 100 µM
same,TGI,[17],> 100 µM
same,TGI,[44],> 100 µM
same,TGI,[45],> 100 µM
same,TGI,[18],> 100 µM
same,TGI,[19],> 100 µM
same,TGI,[22],> 100 µM
same,TGI,[23],> 100 µM
same,TGI,[25],> 100 µM
same,TGI,[27],> 100 µM
same,TGI,[46],> 100 µM
same,TGI,[28],> 100 µM
same,TGI,[29],> 100 µM
same,TGI,[30],> 100 µM
same,TGI,[31],> 100 µM
same,TGI,[32],> 100 µM
same,TGI,[47],> 100 µM
same,TGI,[35],> 100 µM
same,TGI,[48],> 100 µM
same,TGI,[37],> 100 µM
same,TGI,[38],> 100 µM
same,TGI,[49],> 100 µM
